What was measured:
[1] = system: human foreskin fibroblasts; assay: Episomal reprogramming of human foreskin fibroblasts with small molecules on MEF feeder cells, alkaline phosphatase positive colonies (Example 2); type: cell-based
Experimental: FIGS. 5A-5C. Improving episomal reprogramming efficiency with small molecules. FIG. 5A. Effects of PD0325901 (P, 0.5 μM), CHIR99021(C, 3 μM), A-83-01(A, 0.5 μM), hLIF (L, 1000 U/ml) and HA-100 (H, 10 μM) on episomal reprogramming. FIG. 5B Temporal requirement of small molecule treatment for improved episomal reprogramming. Transfected human foreskin fibroblasts were plated to MEF feeder cells. MEF-conditioned human ESC medium supplemented with 100 ng/ml bFGF (CM100) and small molecules was used to support reprogramming. Alkaline phosphatase positive iPSC colonies were counted on day 22-23 post-transfection. The number of iPSC colonies was from ˜0.33×10^6 input cells. Data shown are mean±standard error (s.e.m.) (n=3). FIG. 5C. Differentiation of the newly derived iPSCs (p3) in the presence of small molecules. […] The addition of bFGF in the culture medium had no effect. Black arrow: undifferentiated iPSC colonies; white arrows: differentiated colonies. Scale bars: 100 μm.
FIGS. 6A-6D. Developing feeder-free conditions for episomal reprogramming. FIG. 6A. Effects of MEF feeder cells, Matrigel™ and culture media on episomal reprogramming. Transfected human foreskin fibroblasts (p6) were plated to MEF feeder cell-seeded or Matrigel™-coated 10-cm dishes, and subjected to different reprogramming culture conditions. Alkaline phosphatase positive (AP^+) colonies were counted on day 18-21 post-transfection. The number of AP+ colonies was from ˜0.33×10^6 input cells. Data shown are mean±s.e.m. (n=3). N2B27: DMEM/F12 medium supplemented with N-2 and B-27; N2B27-100: N2B27 medium supplemented with 100 ng/ml bFGF. *marks piPSCs. FIG. 6B. Bright-field images of a piPSC colony from test 2 and a human ESC-like iPSC colony from test 1, 3 and 4. Scale bars: 100 μm. FIG. 6C. Quantitative RT-PCR analysis of OCT4 and NANOG expression in piPSC clone 1 to 4 (p3). Total: both endogenous and transgene expression. Human H1 ESCs (H1ESC, p32) were used as a control. Data shown are mean±s.e.m. (n=3). FIG. 6D. Temporal requirement of small molecule treatment for feeder-free episomal reprogramming using defined culture media. Transfected human foreskin fibroblasts (p7) were plated to Matrigel™-coated 10-cm dishes. N2B27-100 medium supplemented with PCALH was used to support reprogramming for different time windows (stage 2) followed by mTeSR1 for expansion. Alkaline phosphatase positive iPSC colonies were counted on day 22 post-transfection. The number of iPSC colonies was from ˜0.33×10^6 input cells. Data shown are mean±s.e.m. (n=3).
Episomal reprogramming vectors containing expression cassettes for human OCT4, SOX2, NANOG, LIN28, c-MYC, KLF4 and SV40LT transgenes were as previously described (Yu et al., 2009). Specifically, vector pEP4EO2SCK2MEN2L and pEP4EO2SET2K (combination 4) were used for reprogramming optimization. About 7.3 μg of vector pEP4EO2SCK2MEN2L and 3.2 μg of pEP4EO2SET2K were co-transfected into human neonatal foreskin fibroblasts via nucleofection (NHDF-VPD-1001 with U-20 program, Amaxa, Walkersville, Md.). Transfected fibroblasts (˜1.0×10^6 cells per nucleofection) were plated directly to 3×10-cm MEF-seeded dishes or 3×10-cm Matrigel™-coated dishes in fibroblast culture medium. The next day after transfection, fibroblast medium was replaced with MEF-conditioned human ESC medium supplemented with 100 ng/ml zbFGF (CM100), or chemically defined N2B27 medium (N2B27), or N2B27 medium supplemented with 100 ng/ml zbFGF (N2B27-100), or mTeSR1. The N2B27 medium consists of DMEM/F12 culture medium supplemented with N-2 supplement (1×, Invitrogen), B-27 supplement (1×, Invitrogen), 0.1 mM non-essential amino acids, 1 mM GlutaMAX, and 0.1 mM β-mercaptoethanol. Where applied, small molecules PD0325901 (P, 0.5 μM), CHIR99021(C, 3 μM), A-83-01(A, 0.5 μM) (all from Stemgent, San Diego, Calif.), hLIF (L, 1000 U/ml, Millipore, Billerica, Mass.) and HA-100 (H, 10 μM) were added to reprogramming culture. Culture medium was refreshed every two days. […]

[2] = system: human foreskin fibroblasts; assay: Episomal reprogramming of human foreskin fibroblasts with chemical compounds on MEF feeders, alkaline phosphatase positive iPS cell colonies (Example 1); type: cell-based; settings: for effect on episomal reprogramming when added to PD0325901, CHIR99021 and A-83-01: in combination with PD0325901 (0.5 μM), CHIR99021 (3 μM), A-83-01 (0.5 μM)
Excerpt: FIGS. 1A-1C. Improving episomal reprogramming of human foreskin fibroblasts with small chemical compounds. FIG. 1A. Episomal reprogramming vectors. pEF: the eukaryotic elongation factor 1α promoter; pCMV: the cytomegalovirus immediate-early promoter. Transgenes and other features of vectors are indicated by different colors as shown. FIG. 1B. Effects of different combinations of chemical compounds on episomal reprogramming efficiency. FF medium: human foreskin fibroblast culture medium; CM: human ES cell culture medium previously conditioned with irradiated mouse embryonic fibroblast feeder cells. bFGF was used at 100 ng/ml final concentration. B: BIX01294 (1 μM); P: PD0325901 (0.5 μM); C: CHIR99021 (3 μM); A: A-83-01 (0.5 μM). Total: total # of alkaline phosphatase positive iPS cell colonies; Large: # of large-size good undifferentiated alkaline phosphatase positive iPS cell colonies. FIG. 1C. Images of a good iPS cell colony obtained by episomal reprogramming in the presence of chemical compounds. Left: bright-field; right: alkaline phosphatase staining.
FIGS. 2A-2B. Improving episomal reprogramming of human foreskin fibroblasts with small chemical compounds. FIG. 2A. Effects of bFGF and different combinations of chemical compounds on episomal reprogramming efficiency. FF medium: human foreskin fibroblast culture medium; CM: human ES cell culture medium previously conditioned with irradiated mouse embryonic fibroblast feeder cells. bFGF was used at 100 ng/ml final concentration. H: HA-100 (10 μM); B: BIX01294 (1 μM); P: PD0325901 (0.5 μM); C: CHIR99021 (3 μM); A: A-83-01 (0.5 μM); L: hLIF (10 ng/ml). Total: total # of alkaline phosphatase positive iPS cell colonies; Large: # of large-size good undifferentiated alkaline phosphatase positive iPS cell colonies. FIG. 2B. Timing of chemical compound treatment on episomal reprogramming efficiency. CM supplemented with bFGF (100 ng/ml) and HA-100 (10 μM) was used in reprogramming culture.
FIGS. 4A-4B. Episomal reprogramming in defined medium supplemented with chemical compounds. FIG. 4A. Effect of different culture medium on episomal reprogramming in the presence of PD0325901 (0.5 μM), CHIR99021 (3 μM), A-83-01 (0.5 μM) and hLIF (10 ng/ml). FF medium: human foreskin fibroblast culture medium; CM: human ES cell culture medium previously conditioned with irradiated mouse embryonic fibroblast feeder cells. bFGF was used at 100 ng/ml final concentration. H: HA-100 (10 μM); B: BIX01294 (1 μM); P: PD0325901 (0.5 μM); C: CHIR99021 (3 μM); A: A-83-01 (0.5 μM); L: hLIF (10 ng/ml). Total: total # of alkaline phosphatase positive iPS cell colonies; Large: # of large-size good undifferentiated alkaline phosphatase positive iPS cell colonies. FIG. 4B. Sketch of the three-step reprogramming process for the derivation of normal human ES cell-like iPS cells and piPS cells.
For episomal reprogramming of human somatic cells, human foreskin fibroblasts, episomal vectors (FIG. 1A, 7.3 μg of pEP4EO2SCK2MEN2L and 3.2 μg of pEP4EO2SET2K) (Yu et al., 2009) were cotransfected into 1×10^6 cells via nucleofection (NHDF-VPD-1001 with program U-20, Amaxa, Walkersville, Md.). Transfected foreskin fibroblasts from each nucleofection were directly plated to 3×10-cm MEF-seeded dishes in fibroblast culture medium. For adult skin fibroblasts, 7.3 μg of pEP4EO2SCK2MEN2L and 6.4 μg of pEP4EO2SET2K were cotransfected into 1×10^6 cells via nucleofection (NHDF-VPD-1001 with program U-20, Amaxa). Transfected adult skin fibroblasts from each nucleofection were directly plated to 1×10-cm MEF-seeded dish in fibroblast culture medium due to lower cell survival. […]

[3] = LIF added to PD0325901, CHIR99021 and A-83-01

## Cc1cncc2cccc(S(=O)(=O)N3CCCNC[C@@H]3C)c12 [H-1152]
[1]
  replacement of HA-100 in episomal reprogramming: could not be replaced

## Cc1cccc(-c2nn(C(=S)Nc3ccccc3)cc2-c2ccnc3ccccc23)n1 [A-83-01, 3-(6-Methyl-2-pyridinyl)-N-phenyl-4-(4-quinolinyl)-1H-pyrazole-1-carbothioamide]
[1]; CM100, MEF feeder cells
  effect on episomal reprogramming, alone / on its own: minimal effect
  effect on episomal reprogramming, together with the MEK inhibitor PD0325901: minimal effect

## hLIF: human leukemia inhibitory factor
[1]; hLIF 1000 U/ml
  effect of hLIF on episomal reprogramming efficiency: did not significantly improve
  proliferation of reprogramming intermediates: increased
[2]; [3]
  first appearance of iPS cells, day post transfection: ~14 days
  first appearance of iPS cells, earlier by: 3 to 4 days
  large iPS cell colonies: more large iPS cell colonies
[2]
  effect on episomal reprogramming when added to PD0325901, CHIR99021 and A-83-01: further facilitated

## COc1cc2nc(N3CCCN(C)CC3)nc(NC3CCN(Cc4ccccc4)CC3)c2cc1OC [BIX01294]
[2]; BIX01294 1 μM
  effect on reprogramming by episomal vectors, compound on its own: could improve reprogramming
[2]
  effect on episomal reprogramming when added to PD0325901, CHIR99021 and A-83-01: no or only slight benefit

## O=S(=O)(c1cccc2cnccc12)N1CCNCC1 [HA-100]
[1]; CM100, MEF feeder cells
  effect on episomal reprogramming, alone / on its own: minimal effect
[1]; HA-100 10 μM
  episomal reprogramming efficiency in the presence of PD0325901, CHIR99021, A-83-01 and hLIF: further increased

## Cc1ccc2c(c1)C(=O)C1(O)CCN(c3ccccc3)C1=N2 (centres unmarked) [blebbistatin]
[1]
  replacement of HA-100 in episomal reprogramming: could not be replaced

Reference: US9295697B2, “Episomal reprogramming with chemicals” (Cellular Dynamics International, Inc., priority 2009, dated 2016)
